According to patent US12370152B2, “Pharmaceutical composition for preventing or treating metabolic diseases” (INDUSTRY ACADEMIC COOPERATION FOUNDATION CHOSUN UNIVERSITY, priority 2021, dated 2025):

Experiments:
SIRT1, AMPK and ACC = assay: Western blot of SIRT1, AMPK and ACC in HepG2 cells; type: cell-based
Method: (§1) HepG2 hepatocytes were cultured in low glucose Dulbecco's modified Eagle medium (DMEM) (Gibco, Life Technologies, Grand Island, NY, USA) to which 10% FBS (Gibco, Life Technologies, USA), L-glutamine, and 1% penicillin/streptomycin solution were added. The cells were manipulated in a humidified incubator at 37° C. containing 5% CO2 under a sterile condition. The cells were sub-cultured as soon as they reached confluence. The cells were continuously monitored under a bright-field microscope (Nikon Eclipse TS100, Tokyo, Japan), and the medium was replaced every 3 days. For cell viability assays, the cells were seeded and treated with 0 μM-2000 μM camphorquinone (CQ) for 24 hours, then incubated in MTT solution (0.5 mg/ml) for 2 hours, and then formazan crystals were dissolved using dimethyl sulfoxide (DMSO). Cell viability was evaluated using a spectrophotometer (Multiskan FC, Thermo Fisher Scientific).
(§2) Total proteins were extracted with a RIPA lysis buffer system including phenylmethylsulfonyl fluoride (PMSF), sodium orthovanadate (Na3VO4) and protease inhibitor cocktail (Santa Cruz Biotechnology) at 4° C. for 30 minutes, and the extracted sample was centrifuged at 16,000×g for 20 minutes. The concentration of total proteins was quantified using a Pierce BCA Protein Assay Kit (Thermo Fisher Scientific). The proteins (30 to 50 μg) were loaded and separated through sodium dodecyl sulfate-polyacrylamide gel electrophoresis (SDS-PAGE), and then blotted with a PVDF membrane (GE Healthcare, Germany). In order to prevent nonspecific binding of the primary antibodies, the membrane was blocked with TBST including 1% non-fat dry milk for 1 hour and 30 minutes at room temperature (RT). Then, the membrane was incubated overnight at 4° C. together with each primary antibody. The secondary antibodies were conjugated with horseradish peroxidase and visualized with an enhanced chemiluminescence detection kit (GE Healthcare). Analysis of density measurement was performed using Image J software.

[1] = test system: IL1α, IL1β, IL6, p53, TNFα and RAGE; assay: qRT-PCR of inflammatory markers in liver of diabetic mouse model; type: in vivo, C57BL/6 mice; conditions: CQ-L, 10 mg/kg/day i.p., vs HFD mouse group
Method: 6-week-old male C57BL/6 mice (weight 22±2 g) were purchased from Samtako Bio Korea Co., Ltd. (Osan, Gyeonggi-do, Korea). The mice were maintained at 23 to 25° C. under a 12 h light-dark cycle with free access to food and water in a pathogen-free animal facility center. All animal experiments were approved in accordance with the Chosun University Institutional Animal Care and Use Committee (CIACUC2020-S0009). All animals were fed normal chow pellets (ND, SAM #31, Samtako, Inc.), and went through a period of adjustment for 1 week. During the following week, the animals were randomly classified according to the body weight, and one-third of the animals were classified as normal controls to be fed normal chow pellets throughout the study. […] Blood glucose levels of the animals were measured at the end of week 5, and animals showing a fasting blood glucose level (FBG)≥200 mg/dl were selected for the study. […]
(§3) Total RNA was separated from liver tissue of the mouse model using RNAisoPlus (Takara). Then, total RNA (2.5 μg) was reverse transcribed using a Primescript™ II 1st strand cDNA synthesis kit (Takara), and quantified using a Power SYBR Green PCR Master mix (Applied BioSystems). […]

AMPK and SIRT1 = assay: Immunoblotting of AMPK and SIRT1 in liver tissue of diabetic mouse model; type: in vivo, C57BL/6 mice; conditions: vs HFD mouse group
Method: as §2
(§4) 6-week-old male C57BL/6 mice (weight 22±2 g) were purchased from Samtako Bio Korea Co., Ltd. (Osan, Gyeonggi-do, Korea). The mice were maintained at 23 to 25° C. under a 12 h light-dark cycle with free access to food and water in a pathogen-free animal facility center. All animal experiments were approved in accordance with the Chosun University Institutional Animal Care and Use Committee (CIACUC2020-S0009). All animals were fed normal chow pellets (ND, SAM #31, Samtako, Inc.), and went through a period of adjustment for 1 week. During the following week, the animals were randomly classified according to the body weight, and one-third of the animals were classified as normal controls to be fed normal chow pellets throughout the study. On the other hand, the remaining animals were fed a high-fat diet (HFD; 60% Kcal energy as fat) (study diet; #D12492; New Brunswick, NJ 08901 USA) for 2 weeks in order to induce insulin resistance, and the diet was continued until the study ended. Then, STZ (30 mg/kg, i.p.) was administered to the animals for 5 consecutive days from the 4th week to induce T2DM therein. On the other hand, the normal control animals were administered the same volume of citrate buffer instead of the STZ. Blood glucose levels of the animals were measured at the end of week 5, and animals showing a fasting blood glucose level (FBG)≥200 mg/dl were selected for the study. […]

FFA-treated HepG2 cells = assay: Oil Red O staining, lipid accumulation in FFA-treated HepG2 cells; type: cell-based; conditions: FFA-treated HepG2 cells (0.2 mM PA + 0.4 mM OA 24 hours), then 500 μM CQ 24 hours
Method: (§5) Free fatty acids (FFA) were prepared from a combination of palmitic acid (PA) and oleic acid (OA). In short, stocks of 100 mM palmitic acid and 100 mM oleic acid dissolved in sodium hydroxide were prepared. These stock solutions were conjugated with 10% BSA (1:9) solution. All stock solutions were stored at −20° C. The cells were seeded and attached to a 6-well plate, then the cells were treated with a mixture of 0.2 mM PA and 0.4 mM OA (1:2) for 24 hours or the same volume of 10% BSA solution for 24 hours. FFA was removed the next day and 500 μM of camphorquinone was added to the mixture and left for 24 hours. Thereafter, the plate was used for protein and oil red staining.
Oil Red O stock solution dissolved in isopropyl alcohol was prepared by magnetic stirring at room temperature for 2 hours, and the prepared solution was stored at room temperature. Then, Oil Red O working solution was prepared by mixing 1.5 parts of stock solution and 1 part of water (3:2), and incubated at 4° C. for 10 minutes. The solution was filtered through a 0.02 μm filter and used within 6 hours. […] The stained lipid droplets were dissolved in 2-propanol, and absorbance at 520 nm was measured to quantify lipid accumulation.

[2] = test system: HFD+STZ-induced type 2 diabetic mice; assay: Body weight and liver weight in HFD+STZ-induced type 2 diabetic mice; type: in vivo, C57BL/6 mice; conditions: CQ-L, 10 mg/kg/day i.p., 3 weeks
Method: as §4

[3] = test system: HFD+STZ-induced type 2 diabetic mice; assay: Fasting blood glucose in HFD+STZ-induced type 2 diabetic mice; type: in vivo, C57BL/6 mice; conditions: 3 weeks, vs HFD+STZ-treated mice
Method: as §4

[4] = test system: lipid synthesis marker (ChREB) and lipid β-oxidation markers (CES1, CES2 and CPT1A); assay: qRT-PCR of lipid metabolism genes in FFA-treated cell model; type: cell-based
LKB1 and ERK = LKB1 and ERK signals in liver tissue of diabetic mouse model; type: in vivo, C57BL/6 mice; conditions: vs HFD mouse group
Method: as §2, §4

[5] = test system: HFD+STZ-induced type 2 diabetic mice; assay: Glucose tolerance test in HFD+STZ-induced type 2 diabetic mice; type: in vivo, C57BL/6 mice; conditions: 1.5 g/kg d-glucose i.p., within 2 hours, vs HFD mouse group
Method: as §4

HepG2 cells = assay: MTT assay, cytotoxicity in HepG2 cells; type: cell-based; conditions: 24 hours
Method: as §1

AMPK, SIRT1 and ACC = assay: Western blot of AMPK, SIRT1 and ACC in FFA-treated HepG2 fatty hepatocyte model; type: cell-based; conditions: FFA-treated hepatocytes, 500 μM CQ 24 hours
Method: as §5, §2

LKB1, PGC1a and CRTC2 = assay: Expression of LKB1, PGC1a and CRTC2 in liver of diabetic mouse model; type: in vivo, C57BL/6 mice; conditions: CQ treatment vs HFD+STZ-treated HFD mouse group
Method: (§6) 6-week-old male C57BL/6 mice (weight 22±2 g) were purchased from Samtako Bio Korea Co., Ltd. (Osan, Gyeonggi-do, Korea). The mice were maintained at 23 to 25° C. under a 12 h light-dark cycle with free access to food and water in a pathogen-free animal facility center. All animal experiments were approved in accordance with the Chosun University Institutional Animal Care and Use Committee (CIACUC2020-S0009). All animals were fed normal chow pellets (ND, SAM #31, Samtako, Inc.), and went through a period of adjustment for 1 week. During the following week, the animals were randomly classified according to the body weight, and one-third of the animals were classified as normal controls to be fed normal chow pellets throughout the study. On the other hand, the remaining animals were fed a high-fat diet (HFD; 60% Kcal energy as fat) (study diet; #D12492; New Brunswick, NJ 08901 USA) for 2 weeks in order to induce insulin resistance, and the diet was continued until the study ended. Then, STZ (30 mg/kg, i.p.) was administered to the animals for 5 consecutive days from the 4th week to induce T2DM therein. On the other hand, the normal control animals were administered the same volume of citrate buffer instead of the STZ. Blood glucose levels of the animals were measured at the end of week 5, and animals showing a fasting blood glucose level (FBG)≥200 mg/dl were selected for the study. Finally, the animals were divided into the following 4 groups; Group 1: saline-treated normal control mice (Control), Group 2: saline-treated diabetic control mice (HFD), Group 3: camphorquinone (10 mg/kg/day, i.p.)-treated diabetic mice (CQ-L), and Group 4: camphorquinone (30 mg/kg/day, i.p.)-treated diabetic mice (CQ-H). […]
as §3

[6] = test system: SREBP1, FASN, ChREB, CPT1a and CPT1b; assay: qRT-PCR of lipid production and β-oxidation genes in liver of diabetic mouse model; type: in vivo, C57BL/6 mice; conditions: CQ-L, 10 mg/kg/day i.p., vs HFD mouse group
Method: as §6, §3

[7] = by treatment concentration of CQ

c1cc(-c2cnn3cc(-c4ccc(OCCN5CCCCC5)cc4)cnc23)ccn1 [Compound C, reference compound]
CQ-induced ACC protein expression (SIRT1, AMPK and ACC; CC treatment together with CQ): significantly decreased
CQ-induced AMPK protein expression (SIRT1, AMPK and ACC; CC treatment together with CQ): significantly decreased
CQ-induced SIRT1 protein expression (SIRT1, AMPK and ACC; CC treatment together with CQ): significantly decreased

CC12CCC(C(=O)C1=O)C2(C)C (stereo not drawn) [camphorquinone]
SIRT1, AMPK and ACC expression (SIRT1, AMPK and ACC; CQ at 500 μM, increase was decreased at the high concentration): significant increase
ACC expression (SIRT1, AMPK and ACC; [7]): significantly increased in a dose-dependent manner
AMPK expression (SIRT1, AMPK and ACC; [7]): significantly increased in a dose-dependent manner
SIRT1 expression (SIRT1, AMPK and ACC; [7]): significantly increased in a dose-dependent manner
expressions of most inflammatory markers in the liver (IL1α, IL1β, IL6, p53, TNFα and RAGE) [1]: significantly decreased
AMPK in liver tissue (AMPK and SIRT1; CQ-H, 30 mg/kg/day i.p.): activated
SIRT1 in liver tissue (AMPK and SIRT1; CQ-H, 30 mg/kg/day i.p.): activated
AMPK in liver tissue (AMPK and SIRT1; CQ-L, 10 mg/kg/day i.p.): activated
SIRT1 in liver tissue (AMPK and SIRT1; CQ-L, 10 mg/kg/day i.p.): activated
lipid accumulation (Oil red O staining) (FFA-treated HepG2 cells): reduced
body weight [2]: gradually decreased
liver weight [2]: gradually decreased
fasting blood glucose levels ([3]; CQ-H, 30 mg/kg/day i.p.): significantly decreased
fasting blood glucose levels ([3]; CQ-L, 10 mg/kg/day i.p.): significantly decreased
expression of lipid β-oxidation marker [4]: increased
expressions of lipid synthesis markers [4]: decreased
ERK marker in liver tissue (LKB1 and ERK; CQ-H, 30 mg/kg/day i.p.): highly expressed
LKB1 marker in liver tissue (LKB1 and ERK; CQ-H, 30 mg/kg/day i.p.): highly expressed
ERK marker in liver tissue (LKB1 and ERK; CQ-L, 10 mg/kg/day i.p.): highly expressed
LKB1 marker in liver tissue (LKB1 and ERK; CQ-L, 10 mg/kg/day i.p.): highly expressed
glucose tolerance ([5]; CQ-H, 30 mg/kg/day i.p.): improved
glucose tolerance ([5]; CQ-L, 10 mg/kg/day i.p.): improved
cell viability (MTT assay) (HepG2 cells; at a high concentration (above 500 μM; 0-2000 μM tested)): decreased
cytotoxicity (MTT assay) (HepG2 cells; up to 500 μM): No cytotoxicity
activation of ACC (AMPK, SIRT1 and ACC): restored
activation of AMPK (AMPK, SIRT1 and ACC): restored
activation of SIRT1 (AMPK, SIRT1 and ACC): restored
expression of CRTC2 in liver (LKB1, PGC1a and CRTC2): increased
expression of LKB1 in liver (LKB1, PGC1a and CRTC2): increased
expression of PGC1a in liver (LKB1, PGC1a and CRTC2): increased
expression of FASN (lipid production) in liver [6]: significantly decreased
expression of SREBP1 (lipid production) in liver [6]: significantly decreased
expression of the lipid β-oxidation gene CPTa in liver [6]: significantly increased
